Results reported in the supplement of paper PMC8671470.

Tests used:
Details in all cases: 72 h
HL-60 [1] = test system: HL-60
Procedure, shortened: (§1)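 Seeded in RPMI 1640 at densities within the linear growth range, fifteen myeloid leukaemia cell lines were dispensed into 384-well plates with acoustically pre-printed compounds spanning five tenfold doses from 1 to 10,000 nM, in duplicate. The plates were kept for 72 h at 37 °C in 5% CO2 before luminescent ATP viability was measured and normalised to vehicle and to a positive control at 10 µM. Curves were fitted with a four-parameter log-logistic model. The IC50 was taken from those curves.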

KCL-22 [2] = test system: KCL-22
Procedure, shortened: as §1

KG-1 [3] = test system: KG-1
Procedure, shortened: as §1

ML-2 [4] = test system: ML-2
Procedure, shortened: as §1

NOMO-1 [5] = test system: NOMO-1
Procedure, shortened: as §1

HL-60 [6] = experiment: cell viability (% survival relative to DMSO control); higher = less cytotoxic
Procedure, shortened: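 Area under the curve, where listed, was derived from four-parameter log-logistic fits with drc and PharmacoGx. These fits used CellTiter-Glo viability from HL-60 cells in RPMI 1640 with 10% FBS, normalised to DMSO wells and wells holding 10 μM proteasome inhibitor. The full library was rescreened on 384-well plates in duplicate at five tenfold concentrations, 1–10,000 nM, with DMSO or 100 nM of one of three metabolic inhibitors, for 72 h at 37 °C, 5% CO2.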

BV-173 = experiment: cell viability (% survival relative to DMSO control, bortezomib = 0%); higher = less cytotoxic
Procedure, shortened: (§2)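 Percent survival is reported as the mean of duplicate wells. Cells from 10 AML and 5 CML lines were plated in 384-well plates containing compounds at 1, 10, 100, 1000 or 10000 nM and kept for 72 h at 37 °C in 5% CO2. Readout used CellTiter-Glo luminescence, scaled so that vehicle equals 100% and a 10 µM positive control equals 0%.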

HEL = experiment: as above
Procedure, shortened: as §2

HL-60 [7] = experiment: as above
Procedure, shortened: as §2

K-562 = experiment: as above
Procedure, shortened: as §2

KCL-22 [8] = experiment: as above
Procedure, shortened: as §2

KG-1 [9] = experiment: as above
Procedure, shortened: as §2

KU-812 = experiment: as above
Procedure, shortened: as §2

LAMA-84 = experiment: as above
Procedure, shortened: as §2

ML-2 [10] = experiment: as above
Procedure, shortened: as §2

MOLM-13 = experiment: as above
Procedure, shortened: as §2

MV4-11 = experiment: as above
Procedure, shortened: as §2

Mono-Mac-6 = experiment: as above
Procedure, shortened: as §2

NOMO-1 [11] = experiment: as above
Procedure, shortened: as §2

SHI-1 = experiment: as above
Procedure, shortened: as §2

THP-1 = experiment: as above
Procedure, shortened: as §2

CC(=O)Nc1nc(C)c(-c2ccc(Cl)c(S(=O)(=O)NCCO)c2)s1 [PIK93]
Details	IC50 (cell viability) [µM]
HL-60 [1]	0.935
KCL-22 [2]	1.12
KG-1 [3]	2.56
ML-2 [4]	0.607
NOMO-1 [5]	2.05

cell viability [%], HL-60 [6]
Details	0.001 µM	0.01 µM	0.1 µM	1 µM	10 µM
co-treatment: AZD3965 100 nM	102.8	103	100	77.3	13.3
co-treatment: DMSO vehicle	98.3	101	99.6	85.1	23.5
co-treatment: GSK2194069 100 nM	102	106	103	81.7	18.2
co-treatment: pictilisib 100 nM	102	107	97	70.2	16.6

cell viability [%]
Details	1 nM	10 nM	100 nM	1000 nM	10000 nM
BV-173	119	103	95.8	45.6	9.29
HEL	111	94	96.8	74.5	33.1
HL-60 [7]	119	120	84.2	50.7	3.89
K-562	134	98.9	110	82.3	31.9
KCL-22 [8]	132	99.4	100	64.2	20.7
KG-1 [9]	93.9	106	100	80.8	32.6
KU-812	92.6	93.9	94.7	80.1	29.2
LAMA-84	113	95.3	102	90.6	55.8
ML-2 [10]	106	98.8	92.6	38.3	8.96
MOLM-13	129	111	89.9	50.2	0.72
MV4-11	96.3	95.7	84.5	51.1	0.217
Mono-Mac-6	95.8	90.9	85.5	52.4	17.6
NOMO-1 [11]	101	96.7	92.7	69.1	22.9
SHI-1	104	94.6	97.3	57.6	13.4
THP-1	105	102	112	74.7	24.5

N#C/C(=C\c1ccc(O)cc1)C(=O)O [alpha-cyano-4-hydroxycinnamic acid]
Details	IC50 (cell viability) [µM]
HL-60 [1]	> 10
KCL-22 [2]	> 10
KG-1 [3]	> 10
ML-2 [4]	> 10
NOMO-1 [5]	> 10

cell viability [%], HL-60 [6]
Details	0.001 µM	0.01 µM	0.1 µM	1 µM	10 µM
co-treatment: AZD3965 100 nM	99.4	101	102.35	101	101
co-treatment: DMSO vehicle	98.9	98.8	95.79	99.8	98.6
co-treatment: GSK2194069 100 nM	101	103	98.6	97.5	95.5
co-treatment: pictilisib 100 nM	90.3	99.16	95.5	94.7	91.3

cell viability [%]
Details	1 nM	10 nM	100 nM	1000 nM	10000 nM
BV-173	96.5	103	84.2	80.1	113
HEL	99.3	114	118	113	116
HL-60 [7]	79.6	78.6	113	99.5	83.1
K-562	101	72.2	95.4	103	91
KCL-22 [8]	98.3	97.6	103	94	92
KG-1 [9]	101	96.7	103	99.2	103
KU-812	97.9	114	89.3	87.4	105
LAMA-84	96.5	107	96.7	101	101
ML-2 [10]	92.4	101	96.2	95.8	94.5
MOLM-13	97.7	99.7	104	99.1	85.2
MV4-11	100	95.3	95.7	100	101
Mono-Mac-6	98.2	101	103	103	104
NOMO-1 [11]	99.5	96.2	106	104	97.3
SHI-1	99.9	97	95.1	97.3	86.6
THP-1	95.5	98.3	98.3	87.5	93.2

O=C(O)CC[N+](=O)[O-] [3-nitropropionic acid]
Details	IC50 (cell viability) [µM]
HL-60 [1]	4.69
KCL-22 [2]	> 10
KG-1 [3]	> 10
ML-2 [4]	> 10
NOMO-1 [5]	> 10

cell viability [%], HL-60 [6]
Details	0.001 µM	0.01 µM	0.1 µM	1 µM	10 µM
co-treatment: AZD3965 100 nM	102	95.1	101	101.5	97.6
co-treatment: DMSO vehicle	99.6	98.8	107	111	101
co-treatment: GSK2194069 100 nM	98.1	76.9	116	115	96.7
co-treatment: pictilisib 100 nM	84.3	82.1	103	128	106

cell viability [%]
Details	1 nM	10 nM	100 nM	1000 nM	10000 nM
BV-173	93.7	93.5	106	114	93.7
HEL	92.8	116	117	98.8	104
HL-60 [7]	52.3	157	104	108	14.7
K-562	112	120	89.7	95	10.5
KCL-22 [8]	73.9	101	98.3	123	81
KG-1 [9]	99	91.2	97.3	97.3	104
KU-812	95.5	103	99.8	99.2	88.1
LAMA-84	104	103	98.6	97.5	103
ML-2 [10]	104	107	107	102	87
MOLM-13	68.7	122	110	94	0.718
MV4-11	105	115	87.2	99.5	0.752
Mono-Mac-6	102	93.6	101	97.4	104
NOMO-1 [11]	94.8	93.2	101	104	93.4
SHI-1	90.7	120	97.5	92.9	3.76
THP-1	88.2	96.7	99.1	86.5	92.2
